Results as given in the NIST ThermoML archive (doi:10.1021/je5002686).
Several values for one entry are separate records, joined by “and”; a condition that tells them apart may be missing. Identical values can stand only once. ± gives the expanded uncertainty stated by the source.

Details: Liquid, Vibrating tube method

CCOC(F)(C(F)(F)C(F)(F)C(F)(F)F)C(F)(C(F)(F)F)C(F)(F)F (stereo not given) [2-trifluoromethyl-3-ethoxydodecafluorohexane]
Details | mass density
350 K, 40000 kPa | 1622.9 ± 1.4 kg/m3 and 1622.8 ± 1.4 kg/m3
350 K, 40010 kPa | 1622.7 ± 1.4 kg/m3
350 K, 44990 kPa | 1632.7 ± 1.5 kg/m3 and 1632.5 ± 1.5 kg/m3
350 K, 45000 kPa | 1632.5 ± 1.5 kg/m3
350 K, 49990 kPa | 1641.9 ± 1.6 kg/m3 and 1641.7 ± 1.6 kg/m3
350 K, 50000 kPa | 1641.8 ± 1.6 kg/m3
370 K, 490 kPa | 1465.7 ± 0.9 kg/m3 and 1465.9 ± 0.9 kg/m3
370 K, 500 kPa | 1466 ± 0.9 kg/m3
370 K, 1000 kPa | 1468.6 ± 0.9 kg/m3 and 1468.4 ± 0.9 kg/m3 and 1468.5 ± 0.9 kg/m3
370 K, 1990 kPa | 1473.6 ± 0.9 kg/m3 and 1473.5 ± 0.9 kg/m3
370 K, 2000 kPa | 1473.4 ± 0.9 kg/m3
370 K, 2990 kPa | 1478.5 ± 0.9 kg/m3
370 K, 3000 kPa | 1478.2 ± 0.9 kg/m3 and 1478.5 ± 0.9 kg/m3
370 K, 3990 kPa | 1483.1 ± 0.9 kg/m3
370 K, 4000 kPa | 1483.1 ± 0.9 kg/m3 and 1483 ± 0.9 kg/m3
370 K, 4990 kPa | 1487.6 ± 0.9 kg/m3
370 K, 5000 kPa | 1487.5 ± 0.9 kg/m3 and 1487.6 ± 0.9 kg/m3
370 K, 10000 kPa | 1508.2 ± 0.9 kg/m3 and 1507.9 ± 0.9 kg/m3 and 1508.1 ± 0.9 kg/m3
370 K, 14990 kPa | 1526 ± 1 kg/m3 and 1525.8 ± 1 kg/m3
370 K, 19990 kPa | 1541.7 ± 1 kg/m3 and 1541.8 ± 1 kg/m3
370 K, 20000 kPa | 1541.9 ± 1 kg/m3
370 K, 25000 kPa | 1556.3 ± 1.1 kg/m3 and 1556.1 ± 1.1 kg/m3 and 1556.2 ± 1.1 kg/m3
370 K, 30000 kPa | 1569.5 ± 1.2 kg/m3 and 1569.2 ± 1.2 kg/m3 and 1569.4 ± 1.2 kg/m3
370 K, 34990 kPa | 1581.5 ± 1.3 kg/m3
370 K, 35000 kPa | 1581.7 ± 1.3 kg/m3 and 1581.4 ± 1.3 kg/m3
370 K, 40000 kPa | 1593 ± 1.4 kg/m3 and 1592.7 ± 1.4 kg/m3 and 1592.8 ± 1.4 kg/m3
370 K, 45000 kPa | 1603.6 ± 1.5 kg/m3 and 1603.3 ± 1.5 kg/m3 and 1603.4 ± 1.5 kg/m3
370 K, 49990 kPa | 1613.2 ± 1.6 kg/m3 and 1613.4 ± 1.6 kg/m3
370 K, 50020 kPa | 1613.6 ± 1.6 kg/m3
390 K, 490 kPa | 1417.9 ± 0.9 kg/m3
390 K, 500 kPa | 1417.8 ± 0.9 kg/m3 and 1417.7 ± 0.9 kg/m3
390 K, 990 kPa | 1420.9 ± 0.9 kg/m3 and 1421.1 ± 0.9 kg/m3
390 K, 1000 kPa | 1421.1 ± 0.9 kg/m3
390 K, 1990 kPa | 1427.2 ± 0.9 kg/m3 and 1427.4 ± 0.9 kg/m3
390 K, 2000 kPa | 1427.1 ± 0.9 kg/m3
390 K, 3000 kPa | 1433.2 ± 0.9 kg/m3 and 1433.1 ± 0.9 kg/m3
390 K, 3010 kPa | 1433.3 ± 0.9 kg/m3
390 K, 3990 kPa | 1438.8 ± 0.9 kg/m3 and 1438.7 ± 0.9 kg/m3 and 1438.9 ± 0.9 kg/m3
390 K, 5000 kPa | 1444.3 ± 0.9 kg/m3 and 1444.1 ± 0.9 kg/m3 and 1444.4 ± 0.9 kg/m3
390 K, 10000 kPa | 1468.4 ± 0.9 kg/m3 and 1468.3 ± 0.9 kg/m3 and 1468.5 ± 0.9 kg/m3
390 K, 14990 kPa | 1488.9 ± 1 kg/m3 and 1489 ± 1 kg/m3
390 K, 15000 kPa | 1488.9 ± 1 kg/m3
390 K, 19990 kPa | 1506.8 ± 1 kg/m3 and 1507 ± 1 kg/m3
390 K, 20000 kPa | 1507 ± 1 kg/m3
390 K, 25000 kPa | 1523 ± 1.1 kg/m3 and 1522.9 ± 1.1 kg/m3 and 1523.1 ± 1.1 kg/m3
390 K, 29990 kPa | 1537.6 ± 1.2 kg/m3
390 K, 30000 kPa | 1537.6 ± 1.2 kg/m3 and 1537.4 ± 1.2 kg/m3
390 K, 35000 kPa | 1550.9 ± 1.2 kg/m3 and 1550.8 ± 1.2 kg/m3 and 1551 ± 1.3 kg/m3
390 K, 40000 kPa | 1563.2 ± 1.3 kg/m3 and 1563.1 ± 1.3 kg/m3 and 1563.3 ± 1.3 kg/m3
390 K, 44990 kPa | 1574.8 ± 1.4 kg/m3
390 K, 45000 kPa | 1574.7 ± 1.4 kg/m3 and 1574.6 ± 1.4 kg/m3
390 K, 49980 kPa | 1585.3 ± 1.5 kg/m3
390 K, 49990 kPa | 1585.5 ± 1.5 kg/m3
410 K, 990 kPa | 1370.5 ± 0.9 kg/m3
410 K, 3990 kPa | 1392.5 ± 0.9 kg/m3
410 K, 4000 kPa | 1392.7 ± 0.9 kg/m3
410 K, 4990 kPa | 1399.3 ± 0.9 kg/m3
410 K, 10000 kPa | 1427.9 ± 0.9 kg/m3
410 K, 15000 kPa | 1451.6 ± 0.9 kg/m3 and 1451.5 ± 0.9 kg/m3
410 K, 19990 kPa | 1471.8 ± 1 kg/m3
410 K, 20000 kPa | 1472 ± 1 kg/m3
410 K, 24990 kPa | 1489.9 ± 1.1 kg/m3 and 1489.7 ± 1.1 kg/m3
410 K, 29990 kPa | 1506 ± 1.1 kg/m3
410 K, 30000 kPa | 1505.8 ± 1.1 kg/m3
410 K, 34990 kPa | 1520.6 ± 1.2 kg/m3
410 K, 35000 kPa | 1520.5 ± 1.2 kg/m3
410 K, 40000 kPa | 1534 ± 1.3 kg/m3 and 1533.9 ± 1.3 kg/m3
410 K, 45000 kPa | 1546.4 ± 1.4 kg/m3
410 K, 45010 kPa | 1546.3 ± 1.4 kg/m3
410 K, 50000 kPa | 1558 ± 1.5 kg/m3
410 K, 50020 kPa | 1557.9 ± 1.5 kg/m3
430 K, 500 kPa | 1310.6 ± 0.9 kg/m3 and 1310.4 ± 0.9 kg/m3
430 K, 1000 kPa | 1316.1 ± 0.9 kg/m3 and 1315.9 ± 0.9 kg/m3 and 1316.2 ± 0.9 kg/m3
430 K, 2000 kPa | 1326.2 ± 0.9 kg/m3 and 1326 ± 0.9 kg/m3 and 1326.3 ± 0.9 kg/m3
430 K, 3000 kPa | 1335.6 ± 0.9 kg/m3 and 1335.4 ± 0.9 kg/m3 and 1335.7 ± 0.9 kg/m3
430 K, 4000 kPa | 1344.3 ± 0.9 kg/m3 and 1344.1 ± 0.9 kg/m3
430 K, 4990 kPa | 1352.1 ± 0.9 kg/m3 and 1352.4 ± 0.9 kg/m3
430 K, 5000 kPa | 1352.4 ± 0.9 kg/m3
430 K, 9990 kPa | 1386.6 ± 0.9 kg/m3 and 1386.4 ± 0.9 kg/m3
430 K, 14990 kPa | 1413.9 ± 0.9 kg/m3
430 K, 15000 kPa | 1413.8 ± 0.9 kg/m3 and 1414 ± 0.9 kg/m3
430 K, 19990 kPa | 1436.8 ± 1 kg/m3 and 1437 ± 1 kg/m3
430 K, 20000 kPa | 1436.9 ± 1 kg/m3
430 K, 24990 kPa | 1456.9 ± 1 kg/m3
430 K, 25000 kPa | 1456.9 ± 1 kg/m3 and 1456.8 ± 1 kg/m3
430 K, 29990 kPa | 1474.6 ± 1.1 kg/m3
430 K, 30000 kPa | 1474.7 ± 1.1 kg/m3
430 K, 30010 kPa | 1474.5 ± 1.1 kg/m3
430 K, 34990 kPa | 1490.4 ± 1.2 kg/m3
430 K, 35000 kPa | 1490.6 ± 1.2 kg/m3
430 K, 40000 kPa | 1505.2 ± 1.3 kg/m3 and 1505 ± 1.3 kg/m3
430 K, 40010 kPa | 1505.2 ± 1.3 kg/m3
430 K, 45000 kPa | 1518.6 ± 1.4 kg/m3 and 1518.4 ± 1.4 kg/m3
430 K, 49960 kPa | 1530.9 ± 1.4 kg/m3
430 K, 49990 kPa | 1531 ± 1.4 kg/m3
430 K, 50000 kPa | 1530.9 ± 1.4 kg/m3
450 K, 1990 kPa | 1269.4 ± 0.9 kg/m3
450 K, 3980 kPa | 1292.6 ± 0.9 kg/m3
450 K, 4000 kPa | 1292.9 ± 0.9 kg/m3
450 K, 4990 kPa | 1302.9 ± 0.9 kg/m3 and 1303 ± 0.9 kg/m3
450 K, 10000 kPa | 1344.2 ± 0.9 kg/m3 and 1344.1 ± 0.9 kg/m3 and 1344.3 ± 0.9 kg/m3
450 K, 14980 kPa | 1375.6 ± 0.9 kg/m3
450 K, 14990 kPa | 1375.9 ± 0.9 kg/m3
450 K, 15000 kPa | 1375.9 ± 0.9 kg/m3
450 K, 19990 kPa | 1401.9 ± 1 kg/m3 and 1401.7 ± 1 kg/m3
450 K, 25000 kPa | 1424.1 ± 1 kg/m3 and 1424 ± 1 kg/m3
450 K, 29990 kPa | 1443.6 ± 1.1 kg/m3 and 1443.4 ± 1.1 kg/m3
450 K, 30000 kPa | 1443.6 ± 1.1 kg/m3
450 K, 34990 kPa | 1460.8 ± 1.1 kg/m3 and 1461 ± 1.1 kg/m3
450 K, 35000 kPa | 1461 ± 1.1 kg/m3
450 K, 39990 kPa | 1476.8 ± 1.2 kg/m3
450 K, 40000 kPa | 1476.6 ± 1.2 kg/m3 and 1476.8 ± 1.2 kg/m3
450 K, 45000 kPa | 1491.2 ± 1.3 kg/m3 and 1491.1 ± 1.3 kg/m3
450 K, 49980 kPa | 1504.5 ± 1.4 kg/m3
450 K, 49990 kPa | 1504.5 ± 1.4 kg/m3
450 K, 50000 kPa | 1504.4 ± 1.4 kg/m3
470 K, 5010 kPa | 1250.5 ± 0.9 kg/m3
470 K, 9990 kPa | 1300.6 ± 0.9 kg/m3 and 1300.8 ± 0.9 kg/m3
470 K, 10010 kPa | 1300.7 ± 0.9 kg/m3
470 K, 14990 kPa | 1337.3 ± 0.9 kg/m3
470 K, 15000 kPa | 1337.3 ± 0.9 kg/m3 and 1337.5 ± 0.9 kg/m3
470 K, 19990 kPa | 1366.6 ± 0.9 kg/m3
470 K, 20000 kPa | 1366.7 ± 0.9 kg/m3 and 1366.9 ± 0.9 kg/m3
470 K, 25000 kPa | 1391.4 ± 1 kg/m3 and 1391.3 ± 1 kg/m3 and 1391.5 ± 1 kg/m3
470 K, 29990 kPa | 1412.7 ± 1.1 kg/m3
470 K, 30000 kPa | 1412.8 ± 1.1 kg/m3 and 1412.9 ± 1.1 kg/m3
470 K, 34990 kPa | 1431.7 ± 1.1 kg/m3 and 1431.8 ± 1.1 kg/m3
470 K, 35010 kPa | 1431.7 ± 1.1 kg/m3
470 K, 39990 kPa | 1448.8 ± 1.2 kg/m3
470 K, 40000 kPa | 1448.7 ± 1.2 kg/m3
470 K, 44990 kPa | 1464.2 ± 1.3 kg/m3 and 1464.1 ± 1.3 kg/m3
470 K, 45000 kPa | 1464.3 ± 1.3 kg/m3
470 K, 49990 kPa | 1478.4 ± 1.4 kg/m3
470 K, 50000 kPa | 1478.6 ± 1.4 kg/m3
470 K, 50010 kPa | 1478.5 ± 1.4 kg/m3
